79 compounds from the METLIN SMRT retention time set (Domingo-Almenara et al. 2019) can be followed below.

Molecules are shown by their SMILES.

The nature of this data set: gradient 5% acetonitrile 3 min, to 50% in 2 min, to 85% in 15 min, held 3 min, 100 µL/min. As to conditions: column: Zorbax Extend-C18 2.1 x 50 mm; eluents: water / acetonitrile, 0.1% formic acid. The essentials: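 In both positive and negative ionization mode, a quadrupole time-of-flight mass spectrometer coupled to HPLC analyzed pure standards run in mixtures of ~100 molecules. The Zorbax Extend-C18 column (2.1 × 50 mm, 1.8 μm) was operated at 100 μL/min with water and acetonitrile, each containing 0.1% formic acid. The dead volume was 40 μL and the dwell volume 900 μL. Retention time came from adduct peaks that were computationally picked and individually inspected by hand.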
As for `COC1C(=O)N(c2cccc(F)c2)C12CCN(C(=O)Nc1ccccc1)CC2` (centres undefined), the RP-LC retention time amounted to 878 s.

For the compound `Cc1noc(C)c1CC(=O)NCCn1ncc2c(=O)n(Cc3ccc(F)cc3)cnc21`, the RP-LC retention time worked out at 640 s.

In turn, `COc1ccccc1CNS(=O)(=O)c1cc2c(s1)CCN(C(=O)C1CCC1)C2` gave an RP-LC retention time of 877 s.

The compound `Cc1c(Cl)cccc1NC(=O)C1CCCN(c2ccc(-n3cccn3)nn2)C1` (centres undefined) gave an RP-LC retention time of 784 s.

In turn, `O=C(CCC(=O)N1CC2CCCN2c2ccccc21)N1CCN(Cc2ccc3c(c2)OCO3)CC1` (centres undefined) registered an RP-LC retention time of 692 s.

For `O=C1NCCCCCN(C(=O)c2ccsc2)[C@H]2CCC[C@@H]12`, the RP-LC retention time turned out to be 692 s.

Compound `Cc1cccc(-c2noc(CN3N=NC4C(=O)N(c5ccc(F)cc5)C(=O)C43)n2)c1` (centres undefined) showed an RP-LC retention time of 1020 s.

`COc1ccc(-n2ncc3c(=O)n(Cc4nc(-c5cccc(C)c5)no4)cnc32)cc1` showed an RP-LC retention time of 1050 s.

Compound `CC1CCN(S(=O)(=O)c2ccc(-c3nnc(C(=O)NCc4ccccc4)o3)cc2)CC1` yielded an RP-LC retention time of 1040 s.

`O=C(c1cncc(Br)c1)N1CCN(c2ccc(-c3ccco3)nn2)CC1` returned an RP-LC retention time of 603 s.

Take `CC1CCN(C(=O)CN2C(=O)CCCc3cc(S(=O)(=O)N4CCCCCC4)ccc32)CC1`: the RP-LC retention time was determined as 956 s.

In turn, `CC(C(=O)N1CCC(N2CCCCC2)CC1)C1CCN(S(=O)(=O)c2cccs2)CC1` (centres undefined) returned an RP-LC retention time of 627 s.

For the compound `CCc1ccccc1NC(=O)N1CCCC(Cn2cnc3cccnc32)C1` (centres undefined), the RP-LC retention time was 719 s.

Compound `COC(=O)CNC(=O)NCCn1c(C(F)(F)F)nc2ccccc21` registered an RP-LC retention time of 653 s.

The compound `COc1ccc(-c2csc(NC(=O)Cn3nc(C)cc3C)n2)cc1` yielded an RP-LC retention time of 842 s.

Regarding `Cc1ccc(-c2ncccc2CNS(=O)(=O)c2cccs2)cc1`, the RP-LC retention time worked out at 675 s.

With `Cc1nnc(-c2nnc(NCc3ccccc3F)c3ccccc23)o1`, the RP-LC retention time is 819 s.

`O=C(c1ccco1)N1CCN(S(=O)(=O)CCCOc2ccc3c(c2)OCO3)CC1`: the RP-LC retention time worked out at 764 s.

In turn, `CCc1cccc(NC(=O)N2CCC(n3cnnc3C)CC2)c1` yielded an RP-LC retention time of 650 s.

Turning to `COc1ccc(C)cc1NC(=O)C1CC(=O)N(c2n[nH]c3ccccc23)C1` (centres undefined), the RP-LC retention time turned out to be 755 s.

For the compound `O=C(CSc1ccc(N2CCCC(C(=O)NC3CC3)C2)nn1)Nc1c(F)cccc1F` (centres undefined), the RP-LC retention time turned out to be 617 s.

Take `CCCNC(=O)CCc1nc2ccccc2n(CC(=O)NCc2ccc(F)cc2)c1=O`: the RP-LC retention time was found to be 750 s.

With `Cc1nnc(-c2cc(NC(=O)Cc3c(F)cccc3Cl)c(C)s2)o1`, the RP-LC retention time was 886 s.

Take `O=C(NCCC1=CCCCC1)C1CCN(c2cnc(N3CCOCC3)nc2)CC1`: the RP-LC retention time is 772 s.

`O=C(c1ccc2cc[nH]c2c1)N1CCC2(CC1)N=C(c1ccccc1)NO2` registered an RP-LC retention time of 770 s.

For `Cc1cccc(C)c1OCC(O)Cn1c(C2CC(=O)N(Cc3ccccc3)C2)nc2ccccc21` (centres undefined), the RP-LC retention time turned out to be 834 s.

`Cc1ccc(C(=O)Nc2ccc(CN3CCN(C)CC3)c(C(F)(F)F)c2)cc1C#Cc1cnc2cccnn12` yielded an RP-LC retention time of 812 s.

On to `O=C(c1cccs1)N1CC(C(=O)N2CCC(O)CC2)C1`, for which the RP-LC retention time was found to be 566 s.

In turn, `Cn1cc(-c2cc3n(n2)CCC(=O)N3CC(=O)NCCCN2CCCCCC2)c2ccccc21` returned an RP-LC retention time of 621 s.

Take `CCCS(=O)(=O)c1nc2ccc(NS(=O)(=O)c3cc(C)c(C)cc3C)cc2s1`: the RP-LC retention time came to 1040 s.

In turn, `COc1cccc(C(=O)N2CCC3(CC2)N=C(c2ccccc2)NO3)c1` yielded an RP-LC retention time of 728 s.

The compound `O=C(CC1CC1)N1CC(F)(F)C[C@H]1c1nnc(-c2ccccc2)o1` had an RP-LC retention time of 804 s.

For `Cc1nn(-c2ccccc2)c(C)c1S(=O)(=O)N1CCC(C(=O)N2CCc3ccccc32)CC1`, the RP-LC retention time is 1020 s.

The compound `CCCNC(=O)C1CCN(c2ccc(SCC(=O)Nc3c(C)cccc3Cl)nn2)CC1` showed an RP-LC retention time of 1160 s.

`CCNC(=O)C1CCCN(C(=O)Nc2ccc(NC(=O)Nc3ccc(OC)cc3)cc2)C1` (centres undefined) displayed an RP-LC retention time of 678 s.

Regarding `COc1ccc(Nc2ccc3c(=O)c(-c4ccccc4OC)c(C)oc3c2)cc1`, the RP-LC retention time was found to be 947 s.

In turn, `CCN1C(=O)c2ccccc2Oc2ccc(C(=O)N3CCN(c4cccc(C)c4)C(C)C3)cc21` (centres undefined) registered an RP-LC retention time of 1020 s.

Regarding `Cc1cnc(C(=O)N2CCCCCCNC(=O)[C@@H]3CCCC[C@@H]32)cn1`, the RP-LC retention time worked out at 694 s.

Compound `COc1ccc(S(=O)(=O)Nc2ccc3oc(-c4ccccc4OC)cc(=O)c3c2)cc1` gave an RP-LC retention time of 686 s.

Compound `Cc1noc(C)c1Cc1ccc(C(=O)N2CCCC(c3[nH]ccc3C(N)=O)C2)o1` (centres undefined) yielded an RP-LC retention time of 649 s.

As for `COc1ccc(-c2cc(=O)n3c4ccccc4n(CC(=O)Nc4ccc(F)cc4)c3n2)cc1`, the RP-LC retention time is 1010 s.

`CCNC(=O)N1CCC(OC(C)=O)CC1` registered an RP-LC retention time of 586 s.

Compound `CCOC(=O)c1[nH]c(C)c(CCC(=O)N2CCC(C(=O)NCc3ccc(Cl)cc3)CC2)c1C` displayed an RP-LC retention time of 828 s.

`CCn1c(CCNC(=O)c2cccc(F)c2)nc2cccnc21` returned an RP-LC retention time of 616 s.

Regarding `Cc1noc(C)c1CNC(=O)NC1CCCCC1`, the RP-LC retention time worked out at 706 s.

`CCN1CCN(C(=O)C2CCN(C3=NS(=O)(=O)C(c4ccc(C)c(C)c4)=C3C)CC2)CC1` registered an RP-LC retention time of 598 s.

In turn, `CCN1CCN(c2ncc(C(=O)OC)c3ccccc23)CC1` showed an RP-LC retention time of 604 s.

In turn, `c1ccc(-n2cnnc2C2CCCCN2Cc2ccncc2)cc1` (centres undefined) returned an RP-LC retention time of 584 s.

For the compound `CCCNC(=O)COc1ccc(NC(=O)C2CC2)cn1`, the RP-LC retention time amounted to 643 s.

Consider `COc1ccc(/C=C2\CCCc3ccccc3C2=O)cc1`, for which the RP-LC retention time was 1140 s.

For the compound `Cc1ccccc1-c1noc(Cn2cnc3c(cnn3-c3cc(Cl)ccc3C)c2=O)n1`, the RP-LC retention time amounted to 1100 s.

`O=C(Cn1cnc2ccccc21)Nc1nc2c(s1)C(=O)CCC2` came in with an RP-LC retention time of 558 s.

As for `CC(C)(C)c1ccc(C(=O)NC2(c3nc(-c4cccnc4)no3)CCCCC2)cc1`, the RP-LC retention time was determined as 1160 s.

In turn, `CCC(=O)N1CCc2cc(CNS(=O)(=O)c3ccccc3)ccc21` yielded an RP-LC retention time of 790 s.

For the compound `O=C(NCc1ccccc1)C1CCN(S(=O)(=O)c2cc(C(=O)N3CCCCCC3)cs2)CC1`, the RP-LC retention time turned out to be 866 s.

`CCn1cc(-c2nc(CC(=O)Nc3ccc(F)cc3C)cs2)c2cccnc21` yielded an RP-LC retention time of 902 s.

With `O=C(c1cnn2c(-c3ccc4c(c3)OCO4)ccnc12)N1CCN(c2ccccn2)CC1`, the RP-LC retention time worked out at 598 s.

With `CCc1cccc(NC(=O)C2(C)Oc3cccnc3NC2=O)c1` (centres undefined), the RP-LC retention time is 704 s.

Compound `COc1ccc(NC(=O)CSc2cc(N3CCN(c4ccccc4OC)CC3)ncn2)cc1OC` registered an RP-LC retention time of 814 s.

On to `O=C(c1ccccc1Br)N1CCCN(C(=O)C2CC2)c2ccccc21`, for which the RP-LC retention time is 746 s.

`CCOc1cccc2sc(N(CCN(C)C)C(=O)c3ccco3)nc12` gave an RP-LC retention time of 710 s.

Regarding `CC(C)CNC(=O)c1ccc(CN2CCN(Cc3ccccc3)C(=O)C2=O)cc1`, the RP-LC retention time came to 721 s.

`CNC(=O)C1CC(=O)N(c2cccc(C)c2)C1` (centres undefined) yielded an RP-LC retention time of 637 s.

`CCOC(=O)Cn1c(=O)c2cnc(-c3ccc(Cl)cc3)nc2n(C)c1=O` had an RP-LC retention time of 1130 s.

Regarding `Cc1nc(Nc2ccc(Br)cn2)sc1C(=O)N1CCN(C(C)C)CC1`, the RP-LC retention time worked out at 630 s.

`CC1(C)CC(=O)c2cn(-c3ccccc3)c(=O)c(C(=O)NCC3CCCO3)c2C1` (centres undefined) displayed an RP-LC retention time of 738 s.

`O=C(Nc1ccc(Cl)cc1)C1CCN(S(=O)(=O)c2ccc(-c3noc(C4CC4)n3)cc2)CC1` returned an RP-LC retention time of 1100 s.

With `Cc1nn(CC(=O)NCCC2=CCCCC2)c(=O)c2c(C)n(-c3ccccc3)nc12`, the RP-LC retention time is 870 s.

As to `CCn1c(=O)oc2cc(-c3noc(COc4ccccc4)n3)ccc21`, the RP-LC retention time stood at 1020 s.

Consider `Cc1ccc(S(=O)(=O)N2CC3CN(C(=O)c4cccn4C)CC(C2)O3)cc1`, for which the RP-LC retention time amounted to 807 s.

`CC1=C(c2ccccc2)S(=O)(=O)N=C1N1CCCN(C(=O)c2cccc(C#N)c2)CC1` showed an RP-LC retention time of 777 s.

The compound `CC(C)(C)C(O)CCNC(=O)NCc1ccc(Cl)cc1` (centres undefined) registered an RP-LC retention time of 739 s.

On to `CCOC(=O)c1nc(NCc2cccc(OC)c2)c2ccccc2n1`, for which the RP-LC retention time is 754 s.

`CCCn1ccc2oc(C)c(C(=O)NCc3ccc(C(C)C)cc3)c2c1=O` showed an RP-LC retention time of 786 s.

`CCN1c2ccccc2C(=O)NC12CCN(C(=O)Cc1ccc(C)cc1)CC2` gave an RP-LC retention time of 823 s.

Take `O=C(NCc1ccccn1)C1CCCN(c2ccc(Sc3ccc(Br)cc3)nn2)C1` (centres undefined): the RP-LC retention time was found to be 702 s.

Regarding `CCOCCCNC(=O)N1CCN(Cc2nc3cccnc3n2-c2cc(C)cc(C)c2)CC1`, the RP-LC retention time worked out at 653 s.

As to `CN1C(=O)c2cc(C(=O)NCCc3ccccc3)nn2CC1(C)C(=O)NC1CCCCC1` (centres undefined), the RP-LC retention time was determined as 812 s.

`COc1ccc(NC(=O)c2sc(N3CCCC3=O)nc2C)cc1Cl`: the RP-LC retention time was determined as 809 s.
